# Source: PubChem BioAssay (NCI)
#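 96-well plates; 48 h exposure; 5 concentrations. Endpoints by linear interpolation between flanking doses. Not reached: highest tested concentration assigned. Abbreviation: GI50, concentration required for 50% inhibition of growth. TGI denotes the concentration required for complete inhibition of growth.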
# How the values were obtained:
# Experiment in all cases: DTP human tumour cell line panel, 48 h
# HCT-15 colon = test system: HCT-15 colon
# COLO 205 colon = test system: COLO 205 colon
# SW-620 colon = test system: SW-620 colon
# HS 578T breast = test system: HS 578T breast
# OVCAR-3 ovarian = test system: OVCAR-3 ovarian
# MCF7 breast = test system: MCF7 breast
# UO-31 renal = test system: UO-31 renal
# HCT-116 colon = test system: HCT-116 colon
# NCI/ADR-RES ovarian = test system: NCI/ADR-RES ovarian
# RXF 393 renal = test system: RXF 393 renal
# NCI-H522 lung = test system: NCI-H522 lung
# SK-MEL-5 melanoma = test system: SK-MEL-5 melanoma
# BT-549 breast = test system: BT-549 breast
# HCC-2998 colon = test system: HCC-2998 colon
# ACHN renal = test system: ACHN renal
# HT29 colon = test system: HT29 colon
# SF-295 CNS = test system: SF-295 CNS
# SN12C renal = test system: SN12C renal
# CAKI-1 renal = test system: CAKI-1 renal
# 786-0 renal = test system: 786-0 renal
# UACC-62 melanoma = test system: UACC-62 melanoma
# SF-268 CNS = test system: SF-268 CNS
# HOP-92 NSCLC = test system: HOP-92 NSCLC
# IGROV1 ovarian = test system: IGROV1 ovarian
# OVCAR-5 ovarian = test system: OVCAR-5 ovarian
# UACC-257 melanoma = test system: UACC-257 melanoma
# DU-145 prostate = test system: DU-145 prostate
# MDA-MB-231 breast = test system: MDA-MB-231 breast
# SNB-19 CNS = test system: SNB-19 CNS
# OVCAR-8 ovarian = test system: OVCAR-8 ovarian
# HL-60(TB) leukemia = test system: HL-60(TB) leukemia
# KM12 colon = test system: KM12 colon
# OVCAR-4 ovarian = test system: OVCAR-4 ovarian
# PC-3 prostate = test system: PC-3 prostate
# SNB-75 CNS = test system: SNB-75 CNS
# U251 CNS = test system: U251 CNS
# SF-539 CNS = test system: SF-539 CNS
# M14 melanoma = test system: M14 melanoma
# MOLT-4 leukemia = test system: MOLT-4 leukemia
# SR leukemia = test system: SR leukemia
# NCI-H23 lung = test system: NCI-H23 lung
# NCI-H460 lung = test system: NCI-H460 lung
# SK-MEL-28 melanoma = test system: SK-MEL-28 melanoma
# MALME-3M melanoma = test system: MALME-3M melanoma
# A549 NSCLC = test system: A549 NSCLC
# EKVX NSCLC = test system: EKVX NSCLC
# CCRF-CEM leukemia = test system: CCRF-CEM leukemia
# T-47D breast = test system: T-47D breast
# A498 renal = test system: A498 renal
# MDA-MB-435 = test system: MDA-MB-435
# K-562 leukemia = test system: K-562 leukemia
# TK-10 renal = test system: TK-10 renal
# LOX IMVI melanoma = test system: LOX IMVI melanoma
# HOP-62 NSCLC = test system: HOP-62 NSCLC
# NCI-H226 lung = test system: NCI-H226 lung
# RPMI-8226 leukemia = test system: RPMI-8226 leukemia
structure (smiles),measurement,setting,value
COc1cc2c(cc1OCCCNC(=O)/C=C1/C[C@H]3C=Nc4cc(OCc5ccccc5)c(OC)cc4C(=O)N3C1)NC(=O)[C@@H]1CCCN1C2=O,GI50,HCT-15 colon,> 100 µM
same,TGI,HCT-15 colon,> 100 µM
same,GI50,COLO 205 colon,54.6 µM
same,TGI,COLO 205 colon,> 100 µM
same,GI50,SW-620 colon,33.3 µM
same,TGI,SW-620 colon,> 100 µM
same,GI50,HS 578T breast,34.4 µM
same,TGI,HS 578T breast,> 100 µM
same,GI50,OVCAR-3 ovarian,> 100 µM
same,TGI,OVCAR-3 ovarian,> 100 µM
same,GI50,MCF7 breast,32 µM
same,TGI,MCF7 breast,> 100 µM
same,GI50,UO-31 renal,> 100 µM
same,TGI,UO-31 renal,> 100 µM
same,GI50,HCT-116 colon,73.7 µM
same,TGI,HCT-116 colon,> 100 µM
same,GI50,NCI/ADR-RES ovarian,> 100 µM
same,TGI,NCI/ADR-RES ovarian,> 100 µM
same,GI50,RXF 393 renal,33.6 µM
same,TGI,RXF 393 renal,> 100 µM
same,GI50,NCI-H522 lung,31.3 µM
same,TGI,NCI-H522 lung,> 100 µM
same,GI50,SK-MEL-5 melanoma,22.5 µM
same,TGI,SK-MEL-5 melanoma,68.1 µM
same,GI50,BT-549 breast,23.9 µM
same,TGI,BT-549 breast,53.5 µM
same,GI50,HCC-2998 colon,60.3 µM
same,TGI,HCC-2998 colon,> 100 µM
same,GI50,ACHN renal,> 100 µM
same,TGI,ACHN renal,> 100 µM
same,GI50,HT29 colon,45.2 µM
same,TGI,HT29 colon,> 100 µM
same,GI50,SF-295 CNS,84.7 µM
same,TGI,SF-295 CNS,> 100 µM
same,GI50,SN12C renal,18.4 µM
same,TGI,SN12C renal,> 100 µM
same,GI50,CAKI-1 renal,> 100 µM
same,TGI,CAKI-1 renal,> 100 µM
same,GI50,786-0 renal,51 µM
same,TGI,786-0 renal,> 100 µM
same,GI50,UACC-62 melanoma,55.2 µM
same,TGI,UACC-62 melanoma,> 100 µM
same,GI50,SF-268 CNS,39.6 µM
same,TGI,SF-268 CNS,> 100 µM
same,GI50,HOP-92 NSCLC,47.2 µM
same,TGI,HOP-92 NSCLC,> 100 µM
same,GI50,IGROV1 ovarian,> 100 µM
same,TGI,IGROV1 ovarian,> 100 µM
same,GI50,OVCAR-5 ovarian,93.5 µM
same,TGI,OVCAR-5 ovarian,> 100 µM
same,GI50,UACC-257 melanoma,> 100 µM
same,TGI,UACC-257 melanoma,> 100 µM
same,GI50,DU-145 prostate,52.1 µM
same,TGI,DU-145 prostate,> 100 µM
same,GI50,MDA-MB-231 breast,50.9 µM
same,TGI,MDA-MB-231 breast,> 100 µM
same,GI50,SNB-19 CNS,43.3 µM
same,TGI,SNB-19 CNS,> 100 µM
same,GI50,OVCAR-8 ovarian,> 100 µM
same,TGI,OVCAR-8 ovarian,> 100 µM
same,GI50,HL-60(TB) leukemia,51.9 µM
same,TGI,HL-60(TB) leukemia,> 100 µM
same,GI50,KM12 colon,47.5 µM
same,TGI,KM12 colon,> 100 µM
same,GI50,OVCAR-4 ovarian,73.8 µM
same,TGI,OVCAR-4 ovarian,> 100 µM
same,GI50,PC-3 prostate,77.3 µM
same,TGI,PC-3 prostate,> 100 µM
same,GI50,SNB-75 CNS,32.7 µM
same,TGI,SNB-75 CNS,98.1 µM
same,GI50,U251 CNS,33.3 µM
same,TGI,U251 CNS,> 100 µM
same,GI50,SF-539 CNS,32.4 µM
same,TGI,SF-539 CNS,85.5 µM
same,GI50,M14 melanoma,55.3 µM
same,TGI,M14 melanoma,> 100 µM
same,GI50,MOLT-4 leukemia,29.6 µM
same,TGI,MOLT-4 leukemia,> 100 µM
same,GI50,SR leukemia,17.5 µM
same,TGI,SR leukemia,49.2 µM
same,GI50,NCI-H23 lung,> 100 µM
same,TGI,NCI-H23 lung,> 100 µM
same,GI50,NCI-H460 lung,38.9 µM
same,TGI,NCI-H460 lung,> 100 µM
same,GI50,SK-MEL-28 melanoma,> 100 µM
same,TGI,SK-MEL-28 melanoma,> 100 µM
same,GI50,MALME-3M melanoma,> 100 µM
same,TGI,MALME-3M melanoma,> 100 µM
same,GI50,A549 NSCLC,> 100 µM
same,TGI,A549 NSCLC,> 100 µM
same,GI50,EKVX NSCLC,> 100 µM
same,TGI,EKVX NSCLC,> 100 µM
same,GI50,CCRF-CEM leukemia,40.8 µM
same,TGI,CCRF-CEM leukemia,> 100 µM
same,GI50,T-47D breast,> 100 µM
same,TGI,T-47D breast,> 100 µM
same,GI50,A498 renal,58.9 µM
same,TGI,A498 renal,> 100 µM
same,GI50,MDA-MB-435,44.2 µM
same,TGI,MDA-MB-435,> 100 µM
same,GI50,K-562 leukemia,82.8 µM
same,TGI,K-562 leukemia,> 100 µM
same,GI50,TK-10 renal,> 100 µM
same,TGI,TK-10 renal,> 100 µM
same,GI50,LOX IMVI melanoma,43.3 µM
same,TGI,LOX IMVI melanoma,> 100 µM
same,GI50,HOP-62 NSCLC,41.3 µM
same,TGI,HOP-62 NSCLC,> 100 µM
same,GI50,NCI-H226 lung,69.5 µM
same,TGI,NCI-H226 lung,> 100 µM
same,GI50,RPMI-8226 leukemia,43.6 µM
same,TGI,RPMI-8226 leukemia,> 100 µM
